Test results reported in ChEMBL document CHEMBL1121583, “Synthesis and structure-activity studies of a series of 7 alpha-halogeno corticosteroids” (1980).

Tested on: Mus musculus
Assay: Relative topical anti inflammatory activity was measured in mice by comparing with cumulative potency of betamethasone valerate by using croton oil ear assay
Format: functional

| Compound | Potency |
| --- | --- |
| CCC(=O)OCC(=O)[C@@]1(OC(=O)CC)[C@@H](C)CC2C3C(C(O)C[C@@]21C)[C@@]1(C)C=CC(=O)C=C1C[C@H]3Br (some centres not stated) | 186 |
| CC(=O)OCC(=O)[C@@]1(O)[C@@H](C)CC2C3C(C(O)C[C@@]21C)[C@@]1(C)C=CC(=O)C=C1C[C@H]3Cl (some centres not stated) | 81 |
| CCC(=O)OCC(=O)[C@@]1(OC(=O)CC)[C@H](C)CC2C3C(C(O)C[C@@]21C)[C@@]1(C)C=CC(=O)C=C1C[C@H]3F (some centres not stated) | 78 |
| CC(=O)OCC(=O)[C@@]1(O)[C@H](C)CC2C3C(C(O)C[C@@]21C)[C@@]1(C)C=CC(=O)C=C1C[C@H]3Br (some centres not stated) | 20 |
| CCC(=O)OCC(=O)[C@@]1(OC(=O)CC)[C@@H](C)CC2C3C(C(O)C[C@@]21C)[C@@]1(C)C=CC(=O)C=C1C[C@H]3I (some centres not stated) | 103 |
| CC(=O)OCC(=O)[C@@]1(O)[C@@H](C)CC2C3C=CC4=CC(=O)C=C[C@]4(C)C3C(O)C[C@@]21C (some centres not stated) | 29 |
| CCC(=O)OCC(=O)[C@@]1(OC(=O)CC)[C@H](C)CC2C3CCC4=CC(=O)C=C[C@]4(C)C3C(O)C[C@@]21C (some centres not stated) | 74 |
| CCC(=O)OCC(=O)[C@@]1(OC(=O)CC)[C@H](C)CC2C3C(C(O)C[C@@]21C)[C@@]1(C)C=CC(=O)C=C1C[C@H]3Br (some centres not stated) | 120 |
| CCC(=O)OCC(=O)[C@@]1(OC(=O)CC)[C@@H](C)CC2C3C(C(O)C[C@@]21C)[C@@]1(C)C=CC(=O)C=C1C[C@H]3F (some centres not stated) | 69 |
| CCC(=O)OCC(=O)[C@@]1(OC(=O)CC)[C@H](C)CC2C3C=CC4=CC(=O)C=C[C@]4(C)C3C(O)C[C@@]21C (some centres not stated) | 27 |
| CCC(=O)OCC(=O)[C@@]1(OC(=O)CC)[C@@H](C)CC2C3C=CC4=CC(=O)C=C[C@]4(C)C3C(O)C[C@@]21C (some centres not stated) | 57 |
| CCC(=O)OCC(=O)[C@@]1(OC(=O)CC)[C@H](C)CC2C3C(C(O)C[C@@]21C)[C@@]1(C)C=CC(=O)C=C1C[C@H]3I (some centres not stated) | 36 |
| CC(=O)OCC(=O)[C@@]1(O)[C@H](C)CC2C3C=CC4=CC(=O)C=C[C@]4(C)C3C(O)C[C@@]21C (some centres not stated) | 4 |
| CC(=O)OCC(=O)[C@@]1(O)[C@@H](C)CC2C3C(C(O)C[C@@]21C)[C@@]1(C)C=CC(=O)C=C1C[C@H]3Br (some centres not stated) | 94 |
| CC(=O)OCC(=O)[C@@]1(O)[C@H](C)CC2C3CCC4=CC(=O)C=C[C@]4(C)C3C(O)C[C@@]21C (some centres not stated) | 10 |
| CCC(=O)OCC(=O)[C@@]1(OC(=O)CC)[C@@H](C)CC2C3CCC4=CC(=O)C=C[C@]4(C)C3C(O)C[C@@]21C (some centres not stated) | 76 |
| CC(=O)OCC(=O)[C@@]1(O)[C@@H](C)CC2C3C(C(O)C[C@@]21C)[C@@]1(C)C=CC(=O)C=C1C[C@H]3I (some centres not stated) | 54 |
| CC(=O)OCC(=O)[C@@]1(O)[C@@H](C)CC2C3C(C(O)C[C@@]21C)[C@@]1(C)C=CC(=O)C=C1C[C@H]3F (some centres not stated) | 16 |
| CC(=O)OCC(=O)[C@@]1(O)[C@@H](C)CC2C3CCC4=CC(=O)C=C[C@]4(C)C3C(O)C[C@@]21C (some centres not stated) | 26 |
| CC(=O)OCC(=O)[C@@]1(O)[C@H](C)CC2C3C(C(O)C[C@@]21C)[C@@]1(C)C=CC(=O)C=C1C[C@H]3Cl (some centres not stated) | 32 |
| CCC(=O)OCC(=O)[C@@]1(OC(=O)CC)[C@@H](C)C[C@H]2[C@@H]3CCC4=CC(=O)C=C[C@]4(C)[C@@]3(F)[C@@H](O)C[C@@]21C [BETAMETHASONE DIPROPIONATE] | 165 |
| CCCCC(=O)O[C@]1(C(=O)CO)[C@@H](C)C[C@H]2[C@@H]3CCC4=CC(=O)C=C[C@]4(C)[C@@]3(F)[C@@H](O)C[C@@]21C [BETAMETHASONE VALERATE] | 100 |
